Source: patent US9512111B2, “N-sulfonylated tetrahydroquinolines and related bicyclic compounds for inhibition of RORγ activity and the treatment of disease” (Lycera Corporation, priority 2010, dated 2016)

Experiments:
RORγ-LBD = biological target: T1, RORγ-LBD (Homo sapiens, UniProt P51449); test: RORγ-Ligand Binding Domain TR-FRET Assay; format: biochemical; settings: benzoxazines, Table 9
T1 construct: HIS-tagged RORγ-LBD was recombinantly expressed in SF9 cells; made in house; host or cells: SF9 cells (baculovirus); unpurified lysate
T1 sequence (P51449 269-508 limits assumed): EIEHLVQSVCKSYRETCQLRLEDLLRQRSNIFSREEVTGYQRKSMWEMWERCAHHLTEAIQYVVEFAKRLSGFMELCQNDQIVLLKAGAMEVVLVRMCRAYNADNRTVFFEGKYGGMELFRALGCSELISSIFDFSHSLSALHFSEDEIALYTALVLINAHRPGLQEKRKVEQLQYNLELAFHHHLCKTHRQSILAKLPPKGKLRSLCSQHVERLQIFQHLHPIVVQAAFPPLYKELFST
Outline: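 IC50 derived from the 665 nm/615 nm emission ratio after 4 h to overnight incubation. Mixture: Sf9 lysate with His-tagged LBD (~10 nM final, not purified), SRC1-2 LXXLL biotin peptide at 450 nM, 2 nM europium anti-His antibody, 60 nM APC-streptavidin; buffer 25 mM HEPES pH 7.0, 100 mM NaCl, 0.01% Tween, 0.1% BSA.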

RORγt = biological target: T2, RORγt (Homo sapiens, UniProt P51449); test: RORγ Reporter Assay (GAL4-UAS luciferase reporter in HEK293 cells); format: cell-based; settings: benzoxazines, Table 9; HEK cells
T2 construct: The resulting GAL4-RORγt-LBD fusion construct was placed under the control of a constitutive cytomegalovirus (CMV) promoter; expressed in transfected cells; host or cells: HEK293
T2 sequence (P51449 269-508 limits assumed): T1 sequence (P51449 269-508 limits assumed)
Protocol: Inhibition of RORγt in cells was determined using a GAL4-UAS reporter system in HEK293 cells employing a luciferase readout. The RORγt DNA binding domain (DBD) was replaced with the heterologous yeast GAL4 DBD using standard recombinant DNA methods. The resulting GAL4-RORγt-LBD fusion construct was placed under the control of a constitutive cytomegalovirus (CMV) promoter by cloning it into the CMV-driven mammalian expression vector pcDNA3.1+− (Promega Corporation, Madison, Wis.).
A transcriptional reporter expression construct was used to monitor GAL4-RORγ activity, which contained five copies of the GAL4 binding site enhancer (UAS) controlling expression of a firefly luciferase reporter. This construct, pGL4.31, is commercially available from Promega Corporation, Madison Wis. Both expression constructs were transfected in bulk into HEK-293 cells using standard lipid-based transfection techniques, which allowed the GAL4 RORγ-LBD fusion protein to drive expression of the luciferase reporter. Control transfections were performed with an empty pCDN3.1+ vector.
The next day, cells were plated into 384 well plates, test compound was added, and the plates were incubated overnight. […] Promega firefly assays kits were used to stabilize the luciferase signal, and the intensity of the luciferase signal was measured using an EnVision Multilabel Plate Reader (Perkin Elmer, Waltham, Mass.).
HEK 293 cells are transfected with GAL4-NR construct (CMV:NR-LBD in pcDNA3.1neo) and the pGL4.31 GAL4-luciferase reporter construct (Promega). For a background control, use empty pcDNA3.1neo and pGL4.31. Transfection protocol is for a single T75 flask performed with Minis Trans-It 293 reagent. A 60 μL aliquot of Trans-IT reagent at room temperature is added drop wise to 1.5 mL of Optimem (Invitrogen). The resulting solution is mixed by inversion and incubated for 5-20 minutes at room temperature. This reagent mixture is added to 10 μg of DNA (5 μg of each expression vector used at a concentration of 1 mg/mL). The solution is mixed by inversion and incubated at room temperature for 20 minutes.
While the Trans-IT reagent and DNA are incubating, harvest HEK-293 cells. Remove media from flasks via aspiration and add enough TrypLE Express (stable Trypsin-like reagent, Invitrogen) to cover the bottom of the flask. The mixture is incubated at room temperature until the cells are visibly loose in the flask (approximately 2-5 minutes). Add an equal volume of complete growth media, and then pipette to achieve a single cell suspension. Spin down 1×10^7 cells and re-suspend the cells in 10 mL of complete growth media (DMEM high glucose/10% dialyzed FBS/pen/strep; Invitrogen). The cells and transfection mixture are added to one T75 flask. The contents of the T75 flax are mixed and incubated overnight at 37° C. and 5% CO2.
After 16-24 hours, cells are harvested and plated for test compound screening. Cells may be harvested as described above. Next, cells are counted and an appropriate number of cells are spun down. Then, cells are aspirated and re-suspended in complete growth media at a concentration of 0.5×10^6 cells/mL to provide a cell suspension. Plate 20 μL of the cell suspension into a white, tissue-culture treated 384 well plate. (10,000 cells/well).
A 10 mM stock solution of test compound in dimethylsulfoxide (DMSO) was diluted to 500× the final test concentration in DMSO, then diluted to 5× the final test concentration with complete growth medium to provide the Test Compound Solution. The concentration of DMSO in the Test Compound Solution was […]. A 5 μL aliquot of Test Compound Solution was added to each test well in the 384 well plate previously plated with the cell suspension. Next, plates are spun briefly and incubated overnight at 37° C. and 5% CO2.
After 16-24 hours, the luciferase assay is performed. Plates and luciferase reagent (e.g. One-Glo® or Dual Glo®; Promega, Madison, Wis.) are brought to room temperature.

| SMILES | IC50 (RORγ-LBD) [µM] | IC50 (RORγt) [µM] |
| --- | --- | --- |
| COCC1CN(S(=O)(=O)c2ccc(F)c(F)c2)c2cc(NC(=O)c3c(F)cccc3C(F)(F)F)ccc2O1 (stereo not drawn) [VI-79] | < 15 | < 15 |
| COCC1CN(S(=O)(=O)c2ccc(F)c(F)c2)c2cc(NC(=O)c3c(F)cccc3Cl)ccc2O1 (stereo not drawn) [VI-80] | < 15 | < 15 |
| COCC1CN(S(=O)(=O)c2ccc(F)c(F)c2)c2cc(NC(=O)c3c(F)cccc3F)ccc2O1 (stereo not drawn) [VI-81] | < 15 | < 15 |
| O=C(Nc1ccc2c(c1)N(S(=O)(=O)c1ccc(F)cc1)C[C@H](CO)O2)c1c(F)cccc1C(F)(F)F [VI-82] | < 15 | < 15 |
| O=C(Nc1ccc2c(c1)N(S(=O)(=O)c1ccc(F)cc1)C[C@H](CO)O2)c1c(Cl)cccc1Cl [VI-83] | < 15 | < 15 |
| O=C(Nc1ccc2c(c1)N(S(=O)(=O)c1ccc(Cl)cc1)C[C@H](CO)O2)c1c(Cl)cccc1C(F)(F)F [VI-84] | < 15 | < 15 |
| O=C(Nc1ccc2c(c1)N(S(=O)(=O)c1ccc(Cl)cc1)C[C@H](CO)O2)c1c(Cl)cccc1Cl [VI-85] | < 15 | < 15 |
| O=C(Nc1ccc2c(c1)N(S(=O)(=O)c1ccc(Cl)cc1)C[C@H](CO)O2)c1c(F)cccc1Cl [VI-86] | < 15 | < 15 |
| O=C(Nc1ccc2c(c1)N(S(=O)(=O)c1ccc(Cl)cc1)C[C@H](CO)O2)c1c(F)cccc1F [VI-87] | < 15 | < 15 |
| CCOCC1CN(S(=O)(=O)c2ccc(F)c(F)c2)c2cc(NC(=O)c3c(Cl)cccc3C(F)(F)F)ccc2O1 (stereo not drawn) [VI-88] | < 15 | < 15 |
| CCOCC1CN(S(=O)(=O)c2ccc(F)c(F)c2)c2cc(NC(=O)c3c(F)cccc3Cl)ccc2O1 (stereo not drawn) [VI-89] | < 15 | < 15 |
| CCOCC1CN(S(=O)(=O)c2ccc(Cl)cc2)c2cc(NC(=O)c3c(Cl)cccc3C(F)(F)F)ccc2O1 (stereo not drawn) [VI-90] | < 15 | < 15 |
| COCC1CN(S(=O)(=O)c2ccc(Cl)cc2)c2cc(NC(=O)c3c(Cl)cccc3C(F)(F)F)ccc2O1 (stereo not drawn) [VI-91] | < 15 | < 15 |
| CCOCC1CN(S(=O)(=O)c2ccc(Cl)cc2)c2cc(NC(=O)c3c(Cl)cccc3Cl)ccc2O1 (stereo not drawn) [VI-92] | < 15 | < 15 |
| CCOCC1CN(S(=O)(=O)c2ccc(Cl)cc2)c2cc(NC(=O)c3c(F)cccc3Cl)ccc2O1 (stereo not drawn) [VI-93] | < 15 | < 15 |
| CCOCC1CN(S(=O)(=O)c2ccc(Cl)cc2)c2cc(NC(=O)c3c(F)cccc3F)ccc2O1 (stereo not drawn) [VI-94] | < 15 | < 15 |
| COCC1CN(S(=O)(=O)c2ccc(Cl)cc2)c2cc(NC(=O)c3c(Cl)cccc3Cl)ccc2O1 (stereo not drawn) [VI-95] | < 15 | < 15 |
| COCC1CN(S(=O)(=O)c2ccc(Cl)cc2)c2cc(NC(=O)c3c(F)cccc3Cl)ccc2O1 (stereo not drawn) [VI-96] | < 15 | < 15 |
| COCC1CN(S(=O)(=O)c2ccc(Cl)cc2)c2cc(NC(=O)c3c(F)cccc3F)ccc2O1 (stereo not drawn) [VI-97] | < 15 | < 15 |
| CCOCC1CN(S(=O)(=O)c2ccc(F)c(F)c2)c2cc(NC(=O)c3c(Cl)cccc3Cl)ccc2O1 (stereo not drawn) [VI-98] | < 15 | < 15 |
| CCOCC1CN(S(=O)(=O)c2ccc(F)c(F)c2)c2cc(NC(=O)c3c(F)cccc3F)ccc2O1 (stereo not drawn) [VI-99] | < 15 | < 15 |

Next, values leading:

| IC50 (RORγ-LBD) [µM] | IC50 (RORγt) [µM] | SMILES |
| --- | --- | --- |
| < 15 | < 15 | O=C(Nc1cc2c(cc1F)O[C@@H](CO)CN2S(=O)(=O)c1ccc(F)cc1)c1c(Cl)cccc1Cl [VI-40] |
| < 15 | < 15 | O=C(Nc1cc2c(cc1F)O[C@@H](CO)CN2S(=O)(=O)c1ccc(F)cc1)c1c(Cl)cccc1C(F)(F)F [VI-41] |
| < 15 | < 15 | O=C(Nc1ccc2c(c1)N(S(=O)(=O)c1ccc(F)c(F)c1)C[C@H](CO)O2)c1c(F)cccc1Cl [VI-42] |
| < 15 | < 15 | Cc1cccc(Cl)c1C(=O)Nc1ccc2c(c1)N(S(=O)(=O)c1cccc(C#N)c1)C[C@H](CO)O2 [VI-43] |
| < 15 | < 15 | Cc1cccc(F)c1C(=O)Nc1ccc2c(c1)N(S(=O)(=O)c1ccc(F)cc1)C[C@H](CO)O2 [VI-44] |
| < 15 | < 15 | Cc1cccc(F)c1C(=O)Nc1ccc2c(c1)N(S(=O)(=O)c1cccc(C#N)c1)C[C@H](CO)O2 [VI-45] |
| < 15 | < 15 | COc1ccc(S(=O)(=O)N2C[C@H](CO)Oc3cc(F)c(NC(=O)c4c(F)cccc4Cl)cc32)cn1 [VI-46] |
| < 15 | < 15 | O=C(Nc1cc2c(cc1F)O[C@@H](CO)CN2S(=O)(=O)c1ccc(F)cc1)c1c(F)cccc1Cl [VI-47] |
| < 15 | < 15 | Cc1cccc(Cl)c1C(=O)Nc1ccc2c(c1)N(S(=O)(=O)c1ccc(F)cc1)C[C@H](CO)O2 [VI-48] |
| < 15 | < 15 | Cc1cccc(C)c1C(=O)Nc1ccc2c(c1)N(S(=O)(=O)c1ccc(F)cc1)C[C@H](CO)O2 [VI-49] |
| < 15 | < 15 | O=C(Nc1ccc2c(c1)N(S(=O)(=O)c1ccc(Cl)cc1)C[C@@H](CO)O2)c1c(F)cccc1C(F)(F)F [VI-51] |
| < 15 | < 15 | O=C(Nc1ccc2c(c1)N(S(=O)(=O)c1ccc(Cl)cc1)C[C@@H](CO)O2)c1c(Cl)cccc1Cl [VI-52] |
| < 15 | < 15 | N#Cc1cccc(S(=O)(=O)N2C[C@H](CO)Oc3ccc(NC(=O)c4c(F)cccc4C(F)(F)F)cc32)c1 [VI-62] |
| < 15 | < 15 | N#Cc1cccc(S(=O)(=O)N2C[C@H](CO)Oc3ccc(NC(=O)c4c(Cl)cccc4Cl)cc32)c1 [VI-63] |
| < 15 | < 15 | O=C(Nc1ccc2c(c1)N(S(=O)(=O)c1ccc(Cl)cc1)C[C@H](CO)O2)c1c(F)cccc1C(F)(F)F [VI-67] |
| < 15 | < 15 | COCC1CN(S(=O)(=O)c2ccc(F)c(F)c2)c2cc(NC(=O)c3c(Cl)cccc3Cl)ccc2O1 (stereo not drawn) [VI-70] |
| < 15 | < 15 | O=C(Nc1ccc2c(c1)N(S(=O)(=O)c1ccc(F)c(F)c1)C[C@@H](CO)O2)c1c(F)cccc1C(F)(F)F [VI-72] |
| < 15 | < 15 | O=C(Nc1ccc2c(c1)N(S(=O)(=O)c1ccc(F)c(F)c1)C[C@@H](CO)O2)c1c(Cl)cccc1Cl [VI-73] |
| < 15 | < 15 | O=C(Nc1ccc2c(c1)N(S(=O)(=O)c1ccc(F)c(F)c1)C[C@@H](CO)O2)c1c(F)cccc1Cl [VI-75] |
| < 15 | < 15 | O=C(Nc1ccc2c(c1)N(S(=O)(=O)c1ccc(F)c(F)c1)C[C@@H](CO)O2)c1c(F)cccc1F [VI-76] |
| < 15 | < 15 | COCC1CN(S(=O)(=O)c2ccc(F)c(F)c2)c2cc(NC(=O)Cc3ccc(F)cc3)ccc2O1 (stereo not drawn) [VI-78] |
